US20260364088A1, “TASL MIMICKING MOLECULES AND APPLICATIONS THEREOF” (CEMM - FORSCHUNGSZENTRUM FÜR MOLEKULARE MEDIZIN GMBH, priority 2022, published 2026)

How the values were obtained:
TASL-GFP (Homo sapiens) = test: TASL-GFP levels in HEK293T cells co-expressing SLC15A4 (flow cytometry, microscopy); assay type: cell-based; details: HEK293T co-expressing SLC15A4, 10 µM, 24 h
Method: (§1) Cells transfected with TASL-V5 plasmid were stained for V5-tag and detected with deep red Alexa Fluor 647 secondary antibody to allow for selection in the presence of an mCherry reporter. Cells were measured either immediately after staining or in the case of live cells immediately after harvesting and washing with PBS. Data were acquired on a BD FACSCalibur (BD Biosciences) and analyzed with FlowJo software (version 10).
(§2) For live cell imaging cells were plated in PhenoPlate 96-well plates or Ibidi m-Slide 8 (Ibidi) wells at 16 k/well and incubated over-night. Then compounds were added, if indicated, and cells were imaged after 24 h of incubation. Cells were stained with LysoTracker Deep Red L12492 (ThermoFisher) and Hoechst 34580 (ThermoFisher). […] Images were analyzed with Fiji-ImageJ.
(§3) Encouraged by the fact that the chemical entity of the present invention was showing the desired behavior and specificity profile, it became important to better clarify the molecular basis of this uncommon mechanism of action, i.e interference with a highly specific protein interaction leading to degradation of a single complex component. The effect of dTASL1 on complex assembly was first monitored. […]

TASL-GFP = TASL-GFP (Homo sapiens, UniProt Q8N697); test: as above; assay type: cell-based; details: HEK293T co-expressing SLC15A4, 10 µM, 24 h
Sequence of TASL-GFP (Q8N697 whole entry): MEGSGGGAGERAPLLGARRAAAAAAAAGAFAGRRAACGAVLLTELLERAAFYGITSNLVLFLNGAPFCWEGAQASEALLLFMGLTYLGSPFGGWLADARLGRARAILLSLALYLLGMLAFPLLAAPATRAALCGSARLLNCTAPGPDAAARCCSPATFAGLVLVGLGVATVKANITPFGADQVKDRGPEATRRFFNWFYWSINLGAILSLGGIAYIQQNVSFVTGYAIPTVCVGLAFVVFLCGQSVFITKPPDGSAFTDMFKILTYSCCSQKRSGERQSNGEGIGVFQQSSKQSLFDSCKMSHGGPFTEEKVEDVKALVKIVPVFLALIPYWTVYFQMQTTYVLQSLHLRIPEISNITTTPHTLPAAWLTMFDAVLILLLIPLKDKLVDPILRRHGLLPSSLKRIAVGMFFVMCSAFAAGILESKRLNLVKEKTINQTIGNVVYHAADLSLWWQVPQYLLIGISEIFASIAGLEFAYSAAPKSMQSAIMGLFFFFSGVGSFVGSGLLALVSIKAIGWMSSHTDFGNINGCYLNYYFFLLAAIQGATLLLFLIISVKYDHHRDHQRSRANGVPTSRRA
Method: as §1, §2, §3

ΔN-SLC15A4-GFP = ΔN-SLC15A4-GFP (Homo sapiens, UniProt Q8N697); test: ΔN-SLC15A4-GFP levels and localization in HEK293T cells; assay type: cell-based; details: 10 µM, 24 h
Sequence of ΔN-SLC15A4-GFP (Q8N697 whole entry, stated change not applied): as the sequence (Q8N697 whole entry) above
Method: as §1, §2, §3

NF-κB p65 = NF-κB p65 nuclear translocation in CD19^+ B cells of PBMCs (confocal microscopy); assay type: cell-based, human; details: primary B cells, dTASL1 10 µM 24 h, R848 (5 μg/ml) 3 h, n=7
Method: PBMCs were treated for 24 h with DMSO or dTASL1 (10 µM) and thereafter stimulated with 5 μg/ml R848 (Invivogen) for three hours or left unstimulated. Cells were harvested and stained for 30 minutes with PE-conjugated anti-CD19 antibodies (BioLegend, #302254, 1:200 in PBS/2% FBS) on ice and fixed with 4% formaldehyde in PBS for 15 minutes at RT. Permeabilization and staining for NF-κB p65 and IRF5 and counterstaining was performed as for CAL-1 and cells were seeded at a concentration of 3×10^4 cells/well onto 384-well imaging plates. Images were acquired on a PerkinElmer Opera Phenix HCS spinning disc confocal microscope and analyzed as described above with the additional identification of B cells based on CD19 membrane staining intensity. This protocol also applies to the cells obtained from SLE patients.
Given that all evidence obtained seems to confirm the mechanistic precision of this chemical agent, any further consideration of assessing the therapeutic potential required evidence for activity in human primary cells relevant for SLE pathophysiology. The effect of dTASL1 in human peripheral blood mononuclear cells (PBMCs) was assessed. […] It has been previously shown that the SLC15A4-TASL module was required for TNF production in primary human monocytes. […] The impact of dTASL1 on TLR7/8 responses by directly monitoring IRF5 by confocal microscopy in B cells was assessed.

Sequence of TASL-GFP (Homo sapiens) (Q8N697 whole entry): as above

For `CCOc1ccc(-c2cc(C(=O)NCCCN3CCCCC3C)c3ccccc3n2)cc1` (stereo not shown) [dTASL1, 2-(4-ethoxyphenyl)-N-(3-(2-methylpiperidin-1-yl)propyl) quinoline-4-carboxamide], the TASL-GFP levels (TASL-GFP (Homo sapiens)) was “reduced TASL-GFP levels”, the “TASL-GFP levels and localization by microscopy” value (TASL-GFP) was “a reduction of TASL-GFP levels accompanied by relocalisation” and the “levels or localization of ΔN-SLC15A4-GFP” value (ΔN-SLC15A4-GFP) was “did not affect levels or localization of ΔN-SLC15A4-GFP”. The “activation of NF-κB p65” value (NF-κB p65) was “without affecting the activation of NF-κB p65”.
